Results taken from patent US7714018B2, “Heterocyclic antiviral compounds” (Roche Palo Alto LLC, priority 2004, dated 2010).
Where a name gives a salt, the structure may show the parent alone.

Experiments:
Human CCR5 receptor = biological target: T1, Human CCR5 receptor (Homo sapiens, UniProt P51681); assay: Human CCR5 receptor-ligand binding assay (125I RANTES displacement); conditions: 0.1 nM 125I RANTES, CHO-Gα16-hCCR5 cells, RT 2 h
T1 construct: expressed in transfected cells
Text: Human CCR5 receptor (Genebank ID: 29169292) was cloned into mammalian expression vector, pTarget (Promega). The construct was transfected into CHO-Gα16 cells by using Fugene Reagent (Roche). Clones were selected under antibiotic pressure (G418 and Hygromycin) and sorted 4 times with a fluorescence activates cell sorter and a monoclonal antibody specific for CCR5 receptor (BD Biosciences Pharmigen, Mab 2D7, Cat. No. 555993). The clone with highest expression (100,000 copies per cell) was chosen for the binding assays.
Adherent cells in […] tissue culture flask (˜90% confluent) were harvested using 1 mM EDTA in PBS (phosphate-buffered saline) without Ca^2+ and Mg^2+. Cells were washed twice with PBS containing no Ca^2+ and Mg^2+. CHO-Gα16-hCCR5 cells were then resuspended (1×10^6/ml) in ice cold binding buffer (50 mM HEPES, 1 mM CaCl2, 5 mM MgCl2, 0.5% BSA, 0.05% NaN3, pH 7.24), pH 7.4), supplemented with freshly made 0.5% BSA and 0.05% NaN3.
Eighty μl CHO-Gα16-hCCR5 (1×10^6/ml) cells were added to 96 well plates. All dilutions were made in binding buffer (50 mM HEPES, 1 mM CaCl2, 5 mM MgCl2, 0.5% BSA, 0.05% NaN3, pH 7.24).
The plates were incubated on a cell shaker at RT for 2 h with a final concentration of 0.1 nM ^125I RANTES or ^125I MIP-1α or ^125I MIP-1β. The compound dilutions were made in PBS, 1% BSA. Total reaction volume was 100 μl per well. The test compounds were added to the cells prior to the addition of radioligand.
After incubation, the cells were harvested onto GF/C filter plates using Packard cell harvester. Filters were pretreated with 0.3% PEI/0.2% BSA for 30 min. The filter plate was washed rapidly 5 times with 25 mM HEPES, 500 mM NaCl, 1 mM CaCl2 and 5 mM MgCl2 adjusted to pH 7.1. Plates were dried in oven (70° C.) for 20 min, added with 40 μl scintillation fluid and sealed with Packard TopSeal-A. Packard Top Count was used to measure of the radioactivity for 1 min per well.
Total binding was determined with control wells added with radioisotope and buffer and the non-specific binding was determined using an excess cold RANTES to some of the control wells. Specific binding was determined by subtracting the non-specific form total binding. Results are expressed as the percentage of specific ^125I RANTES binding. IC50 values were determined using varying concentrations of the test ligand in triplicates and the data was analyzed using GraphPad Prism (GraphPad, San Diego, Calif.).

T1 sequence (P51681 whole entry): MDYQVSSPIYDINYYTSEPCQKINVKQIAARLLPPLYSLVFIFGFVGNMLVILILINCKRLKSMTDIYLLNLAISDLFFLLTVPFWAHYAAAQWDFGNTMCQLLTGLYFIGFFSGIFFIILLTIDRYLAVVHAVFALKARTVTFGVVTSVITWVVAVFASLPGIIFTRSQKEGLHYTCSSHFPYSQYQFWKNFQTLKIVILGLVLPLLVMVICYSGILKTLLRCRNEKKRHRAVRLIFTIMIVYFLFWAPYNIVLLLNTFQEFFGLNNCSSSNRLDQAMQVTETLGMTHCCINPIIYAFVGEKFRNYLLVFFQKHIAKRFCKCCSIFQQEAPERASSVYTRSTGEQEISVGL

Structure (SMILES)	melting point	IC50 (Human CCR5 receptor)
Cc1cccc(C)c1C(=O)N1C[C@H]2CN(CCC(NC(=O)C3CCCC3)c3ccccc3)C[C@H]2C1 (stereo partly drawn) [Compound I-3, Cyclopentanecarboxylic acid {3-[5-(2,6-dimethyl-benzoyl)-hexahydro-pyrrolo[3,4-c]pyrrol-2-yl]-1-phenyl-propyl}-amide]	60.9 to 63.9 °C	
Cc1ncnc(C)c1C(=O)N1CC2CN(CCC(NC(=O)C3CCC(F)(F)CC3)c3ccccc3)CC2C1 (stereo not drawn) [Compound I-435, 4,4-Difluoro-cyclohexanecarboxylic acid {3-[5-(4,6-dimethyl-pyrimidine-5-carbonyl)-hexahydro-pyrrolo[3,4-c]pyrrol-2-yl]-1-phenyl-propyl}-amide]	131.8 to 133.2 °C	
Cc1ccc(N(CCCN2CC3CN(C(=O)c4c(C)cccc4C)CC3C2)C(=O)C2CCS(=O)(=O)CC2)cc1Cl (stereo not drawn) [II-279]	101.3 to 102.7 °C	0.0015 µM
CC(=O)N1CCC(C(=O)N(CCCN2C[C@@H]3CN(C(=O)c4c(C)cccc4C)C[C@@H]3C2)c2ccc(C)c(Cl)c2)CC1 [II-1, 1-Acetyl-piperidine-4-carboxylic acid (3-chloro-4-methyl-phenyl)-{3-[5-(2,6-dimethyl-benzoyl)-hexahydro-pyrrolo[3,4-c]pyrrol-2-yl]-propyl}]	58.1 to 65.2 °C	0.0042 µM
Cc1ncnc(C)c1C(=O)N1CC2CN(CCC(NC(=O)C3CCCC3)c3ccccc3)CC2C1 (stereo not drawn) [Compound I-29, Cyclopentanecarboxylic acid {3-[5-(4,6-dimethyl-pyrimidine-5-carbonyl)-hexahydro-pyrrolo[3,4-c]pyrrol-2-yl]-1-phenyl-propyl}-amide]	48 to 49 °C	0.016 µM
CC(=O)N1CCC(C(=O)N(CCC(C)N2CC3CN(C(=O)c4c(C)ccnc4C)CC3C2)c2ccc(C)c(Cl)c2)CC1 (stereo not drawn) [II-36, 1-Acetyl-piperidine-4-carboxylic acid (3-chloro-4-methyl-phenyl)-{3-[5-(2,4-dimethyl-pyridine-3-carbonyl)-hexahydro-pyrrolo[3,4-c]pyrrol-2-yl]-butyl}-amide]	60.9 to 62.4 °C	
Cc1ccnc(C)c1C(=O)N1CC2CN(CC[C@H](NC(=O)C3CCCC3)c3ccccc3)CC2C1 (stereo partly drawn) [Compound I-78]	68.8 to 73.6 °C	0.037 µM
Cc1ccc(N(CCCN2C[C@@H]3CN(C(=O)c4c(C)ccnc4C)C[C@@H]3C2)C(=O)Nc2ccc(Cl)cc2)cc1 [II-203, 3-(4-Chloro-phenyl)-1-{3-[(3aS,6aR)-5-(2,4-dimethyl-pyridine-3-carbonyl)-hexahydro-pyrrolo[3,4-c]pyrrol-2-yl]-propyl}-1-p-tolyl-urea]	60.5 to 62.5 °C	
Cc1ccc(N(CCCN2CC3CN(C(=O)c4c(C)ncnc4C)CC3C2)C(=O)C2CCN(C(=O)C(=O)O)CC2)cc1Cl (stereo not drawn) [II-303, [4-((3-Chloro-4-methyl-phenyl)-{3-[5-(4,6-dimethyl-pyrimidine-5-carbonyl)-hexahydro-pyrrolo[3,4-c]pyrrol-2-yl]-propyl}-carbamoyl)-piperidin-1-yl]-oxo-acetic acid, hydrochloride salt]		0.102 µM
CC(=O)N1CCC(C(=O)N(CCCN2CC3CN(C(=O)c4c(C)ccnc4C)CC3C2)c2ccc(C)c(Cl)c2)CC1 (stereo not drawn) [II-3, 1-Acetyl-piperidine-4-carboxylic acid (3-chloro-4-methyl-phenyl)-{3-[5-(2,4-dimethyl-pyridine-3-carbonyl)-hexahydro-pyrrolo[3,4-c]pyrrol-2-yl]-propyl}-amide]	91.8 to 96.9 °C	0.0184 µM
CCOC(=O)c1[nH]c(C)c(S(=O)(=O)N2CC3CN(CCCN(C(=O)C4CCN(C(C)=O)CC4)c4ccc(C)c(Cl)c4)CC3C2)c1C (stereo not drawn) [II-355]		0.0027 µM
Cc1cccc(C)c1C(=O)N1CC2CN(C(CO)CC(NC(=O)C3CCCC3)c3ccccc3)CC2C1 (stereo not drawn) [Compound I-360, Cyclopentanecarboxylic acid {3-[5-(2,6-dimethyl-benzoyl)-hexahydro-pyrrolo[3,4-c]pyrrol-2-yl]-4-hydroxy-1-phenyl-butyl}-amide]	78.9 to 84.9 °C	
Cc1ncnc(C)c1C(=O)N1CC2CN(C(C)C[C@H](NC(=O)C3CCC(F)(F)CC3)c3ccccc3)CC2C1 (stereo partly drawn) [Compound I-449]	86.4 to 87 °C	0.001 µM
Cc1nc(OCC(=O)O)nc(C)c1C(=O)N1CC2CN(CC[C@H](NC(=O)C3CCCC3)c3ccccc3)CC2C1 (stereo partly drawn) [Compound I-466]		0.011 µM
Cc1ncnc(C)c1C(=O)N1CC2CN(C(C)CC(NC(=O)C3CCC(F)(F)CC3)c3ccccc3)CC2C1 (stereo not drawn) [Compound I-448, 4,4-Difluoro-cyclohexanecarboxylic acid {3-[5-(4,6-dimethyl-pyrimidine-5-carbonyl)-hexahydro-pyrrolo[3,4-c]pyrrol-2-yl]-1-phenyl-butyl}-amide]	71.3 to 72.9 °C	
